Columns and labels:
Settings in all cases: 72 h
[1] = system: myeloid leukemia patient primary cells Pat.7; assay: cell viability (% survival relative to DMSO control); higher = less cytotoxic
In short: (§1)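 Thawed mononuclear cells from AML or CML patients were purified on Ficoll and cultured for 72 h in RPMI 1640 with 10% FBS, at 10,000 cells/well, on 384-well plates carrying 70 pre-printed compounds at 1–10,000 nM in five tenfold steps, in duplicate. Viability came from CellTiter-Glo, normalised against DMSO and against 10 μM proteasome inhibitor. Any area under the curve given was derived from log-logistic curve fits in the drc and PharmacoGx R packages, and these fits had four parameters.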

[2] = system: myeloid leukemia patient primary cells Pat.5; assay: as above
In short: as §1

[3] = system: myeloid leukemia patient primary cells Pat.6; assay: as above
In short: as §1

[4] = system: myeloid leukemia patient primary cells Pat.2; assay: as above
In short: as §1

[5] = system: myeloid leukemia patient primary cells Pat.8; assay: as above
In short: as §1

[6] = system: myeloid leukemia patient primary cells Pat.14; assay: as above
In short: as §1

[7] = system: myeloid leukemia patient primary cells Pat.12; assay: as above
In short: as §1

[8] = system: myeloid leukemia patient primary cells Pat.7; assay: area under dose-response curve (viability, 1 nM-10 uM) (fraction (0-1)); higher = more sensitive
Description: (§2)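 AUC (0–1, higher = more sensitive) of the 5-point dose–response (1 nM–10 µM, 72 h, CellTiter-Glo) in primary AML/CML patient mononuclear cells. 0.030103 is the floor for inactive compounds.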

[9] = system: myeloid leukemia patient primary cells Pat.5; assay: as above
Description: as §2

[10] = system: myeloid leukemia patient primary cells Pat.3; assay: as above
Description: as §2

[11] = system: myeloid leukemia patient primary cells Pat.4; assay: as above
Description: as §2

[12] = system: myeloid leukemia patient primary cells Pat.15; assay: as above
Description: as §2

[13] = system: myeloid leukemia patient primary cells Pat.6; assay: as above
Description: as §2

[14] = system: myeloid leukemia patient primary cells Pat.9; assay: as above
Description: as §2

[15] = system: myeloid leukemia patient primary cells Pat.2; assay: as above
Description: as §2

[16] = system: myeloid leukemia patient primary cells Pat.8; assay: as above
Description: as §2

[17] = system: myeloid leukemia patient primary cells Pat.10; assay: as above
Description: as §2

[18] = system: myeloid leukemia patient primary cells Pat.1; assay: as above
Description: as §2

[19] = system: myeloid leukemia patient primary cells Pat.14; assay: as above
Description: as §2

[20] = system: myeloid leukemia patient primary cells Pat.12; assay: as above
Description: as §2

[21] = system: myeloid leukemia patient primary cells Pat.13; assay: as above
Description: as §2

ML-2 = system: ML-2
In short: (§3)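 Fifteen myeloid leukaemia cell lines were seeded in RPMI 1640 at densities titrated to the linear growth range and placed in 384-well plates with acoustically pre-printed compounds at five tenfold doses from 1 to 10,000 nM, in duplicate. After 72 h at 37 °C with 5% CO2, luminescent ATP viability was normalised to vehicle and to a positive control at 10 µM, and curves were fitted with a four-parameter log-logistic model. The IC50 was obtained from these fits.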

THP-1 = system: THP-1
In short: as §3

LAMA-84 = system: LAMA-84
In short: as §3

HL-60 = system: HL-60
In short: as §3

BV-173 = system: BV-173
In short: as §3

KG-1 = system: KG-1
In short: as §3

SHI-1 = system: SHI-1
In short: as §3

HEL = system: HEL
In short: as §3

NOMO-1 = system: NOMO-1
In short: as §3

KU-812 = system: KU-812
In short: as §3

MOLM-13 = system: MOLM-13
In short: as §3

K-562 = system: K-562
In short: as §3

Mono-Mac-6 = system: Mono-Mac-6
In short: as §3

MV4-11 = system: MV4-11
In short: as §3

[22] = system: myeloid leukemia patient primary cells Pat.11; assay: area under dose-response curve (viability, 1 nM-10 uM) (fraction (0-1)); higher = more sensitive
Description: as §2

Nc1nc(Cl)nc2c1ncn2[C@H]1C[C@H](O)[C@@H](CO)O1 [Cladribine]
cell viability [%]
Settings	[1]	[2]	[3]	[4]	[5]	[6]	[7]
1 nM	97.6	50.7	95.1	> 100	88.1	90.7	94.5
10 nM	82.8	35.2	74.3	89.8	77.7	75.3	83.1
100 nM	17.1	9.01	19.2	53.5	12.6	17.3	54.4
1000 nM	< 0	0.265	6.84	15.5	3.65	3.16	20.5
10000 nM	< 0	1.33	6.92	10.1	3.19	0.937	7.86

Settings	IC50 (cell viability) [nM]	area under dose-response curve
BV-173	4.38	–
HEL	33.5	–
HL-60	47.1	–
K-562	219	–
KG-1	384	–
KU-812	98.9	–
LAMA-84	99.2	–
ML-2	238	–
MOLM-13	25.3	–
MV4-11	20.2	–
Mono-Mac-6	21.2	–
NOMO-1	52.9	–
SHI-1	43.9	–
THP-1	358	–
[8]	–	0.62
[9]	–	0.799
[10]	–	0.652
[11]	–	0.689
[12]	–	0.193
[13]	–	0.611
[14]	–	0.762
[15]	–	0.463
[16]	–	0.609
[17]	–	0.768
[18]	–	< 0.0301
[19]	–	0.616
[20]	–	0.438
[21]	–	0.7

C=C(C=NNC(=N)N)NNC(=N)N [Mitoguazone]
cell viability [%]
Settings	[1]	[2]	[3]	[4]	[5]	[6]	[7]
1 nM	65.3	> 100	> 100	96.2	94.1	91.4	> 100
10 nM	85.7	0.912	82	79.2	69	54.7	90
100 nM	< 0	0.265	44.5	49.2	50	4.62	99.3
1000 nM	< 0	1.33	1.04	50	99.8	2.41	96.9
10000 nM	54.5	78.9	50.8	67.7	94.2	80.8	99.4

Settings	IC50 (cell viability) [nM]	area under dose-response curve
BV-173	1440	–
HEL	9120	–
HL-60	7010	–
K-562	1320	–
KG-1	3310	–
KU-812	4550	–
LAMA-84	2290	–
ML-2	916	–
MOLM-13	944	–
MV4-11	1130	–
Mono-Mac-6	1240	–
NOMO-1	1590	–
SHI-1	1100	–
THP-1	3080	–
[8]	–	0.528
[9]	–	0.715
[10]	–	0.412
[11]	–	0.0342
[12]	–	0.161
[13]	–	0.484
[14]	–	0.6
[15]	–	< 0.0301
[16]	–	< 0.0301
[17]	–	0.574
[18]	–	< 0.0301
[19]	–	0.604
[20]	–	< 0.0301
[21]	–	< 0.0301
[22]	–	< 0.0301

CCC(=O)N1CCN(c2ccc(-n3c(=O)ccc4cnc5ccc(-c6cnc7ccccc7c6)cc5c43)cc2C(F)(F)F)CC1 [Torin1]
cell viability [%]
Settings	[1]	[2]	[3]	[4]	[5]	[6]	[7]
1 nM	75.7	54.5	97.8	92.5	91.1	77.2	90.6
10 nM	74.2	13.5	89.3	94.3	66.9	82.1	91.5
100 nM	88.2	53.9	94.1	74.2	73.1	74.3	92.3
1000 nM	44.8	1.18	62.6	62.8	61.7	38.1	91.5
10000 nM	37.6	0.265	62.9	64.2	53.7	54.1	89.5

Settings	IC50 (cell viability) [nM]	area under dose-response curve
BV-173	377	–
HEL	594	–
HL-60	1750	–
K-562	327	–
KG-1	295	–
KU-812	191	–
LAMA-84	222	–
ML-2	616	–
MOLM-13	208	–
MV4-11	486	–
Mono-Mac-6	333	–
NOMO-1	672	–
SHI-1	> 10000	–
THP-1	1110	–
[8]	–	0.195
[9]	–	0.802
[11]	–	0.322
[12]	–	0.614
[14]	–	0.36
[16]	–	0.0632
[17]	–	0.477
[18]	–	0.457
[19]	–	0.225
[20]	–	< 0.0301
[21]	–	0.218
[22]	–	0.183
